From PMC7942396, “Drug Repurposing Screen for Compounds Inhibiting the Cytopathic Effect of SARS-CoV-2” (Frontiers in Pharmacology, 2021)
Where two headings read alike, the source gives them in different places.

Key:
[1] = tested on: SARS-CoV-2 (USA_WA1/2020); test: microbe, parasite or virus in culture; format: cell-based; conditions: for EC50: read-out: CPE EC50
Vero E6 cells = Vero E6 cells without virus; for CC50: read-out: Cytotox CC50
[2] = […], DMSO 0%, no-virus control 100%, hit confirmation
[3] = SARS-CoV-2 CPE assay, Vero E6 cells
[4] = SARS-CoV-2 CPE assay, Vero E6 cells, confirmed anti-SARS-CoV-2 compounds
[5] = SARS-CoV-2 CPE assay, Vero E6 cells, efficacy

| SMILES | CPE % Efficacy [1, 2] | EC50 [1] | % Cytotox (Vero E6 cells; 72 h) | CPE % Efficacy [1, 3] | EC50 [1, 3] | % Cytotox (Vero E6 cells; cytotoxicity counter-assay) | CC50 (Vero E6 cells; cytotoxicity counter-assay) | EC50 [1, 4] | CPE % Efficacy [1, 5] |
| --- | --- | --- | --- | --- | --- | --- | --- | --- | --- |
| Cl.Fc1ccc2c(CCNCc3cccc(OCC(F)(F)C(F)F)c3)c[nH]c2c1 [Lu AE58054 hydrochloride, reference compound] | 97.2% | 10 µM | <30% | – | – | – | – | – | – |
| CC1(N2CCC(n3c([C@@H]4CCCNC4)nc4ccccc43)CC2)CCCCCCC1 [MCOPPB, reference compound] | 85.6% | 3.5 µM | <30% | – | – | – | – | – | – |
| Cc1cnc(NC(=O)c2cc(S(=O)(=O)N(C)C)ccc2N2CCCC2)s1 [ML414, reference compound] | – | 3.2 µM | <30% | – | – | – | – | – | – |
| O=S(=O)(c1cccc2c(I)cccc12)N1CCCNCC1 [ML-7] | – | – | – | 36.2% | 12.6 µM | 20.3% | 19.9 µM | – | – |
| O=S(=O)(c1cccc2c(Cl)cccc12)N1CCCNCC1 [ML-9] | – | – | – | 91.0% | 12.6 µM | 23.3% | 11.2 µM | – | – |
| COc1ccc(C2CC(c3ccccc3)=NN2c2ccc(S(N)(=O)=O)cc2)cc1 (stereo not shown) [ML-141] | – | – | – | – | – | 23.8% | – | 8.91 µM | 65.2% |
| c1ccc(-c2ccc(CNc3nc(-c4ccccn4)nnc3-c3ccccc3)cc2)cc1 [ML-228] | – | – | – | – | – | 74.8% | 0.56 µM | 0.63 µM | 69.4% |
| C(=N\Nc1nc(Nc2ccccc2)nc(N2CCOCC2)n1)/c1c[nH]c2ccccc12 [MLS000543798] | – | – | – | – | – | 33.6% | 0.45 µM | 0.11 µM | 87.4% |
| Cn1cc(-c2ccncc2)c(-c2ccc(OCc3ccc4ccccc4n3)cc2)n1 [MP-10] | – | – | – | – | – | 85.1% | – | 4.47 µM | 31.1% |
| COc1cc(C(=O)NC(=N)Nc2ccc(C)c(NC(=O)c3ccc(-c4ccccc4)cc3)c2)cc(OC)c1OC [MRT-83] | – | – | – | 56.4% | 11.2 µM | 37.9% | 10 µM | – | – |
| COc1ccc2c(c1)c(CCN(C)C)cn2S(=O)(=O)c1ccccc1.O=C(O)C(=O)O [MS 245 oxalate] | – | – | – | 76.1% | 12.6 µM | 20.5% | 12.6 µM | – | – |
| COc1ccc(C(C)(C)C)cc1CN[C@H]1C2CCN(CC2)[C@H]1C(c1ccccc1)c1ccccc1 [Maropitant] | – | – | – | – | – | 108.2% | – | 3.55 µM | 83.7% |
| CN(C)CCC=C1c2ccccc2C(C)(C)c2ccccc21.Cl [Melitracen hydrochloride, reference compound] | 97.1% | 10 µM | <30% | – | – | – | – | – | – |
| CN1CN(c2ccccc2)C2(CCN(CCCC(=O)c3ccc(F)cc3)CC2)C1=O.Cl [N-Methylspiperone hydrochloride, reference compound] | 80.0% | 4.5 µM | <30% | – | – | – | – | – | – |
| O=C(CCn1cnc2onc(-c3ccc(F)cc3)c2c1=O)Nc1cccc(C(F)(F)F)c1 [NCGC00126519] | – | – | – | – | – | 65.0% | 10 µM | 11.2 µM | 64.8% |
| O=C(NCCCN1CCN(c2ccccc2F)CC1)c1ccc2nc(Cc3ccccc3)oc2c1 [NCGC00133175] | – | – | – | 95.1% | 14.1 µM | 25.5% | 15.8 µM | – | – |
| C=C1C(=O)O[C@H]2C3=C(C)CCC[C@]3(C)C(=O)C[C@@H]12 [NCGC00168931] | – | – | – | – | – | 69.6% | 10 µM | 2.24 µM | 40.6% |
| C/C=C(\C)C(=O)O[C@H]1CC2C(=C1C)[C@H]1OC(=O)[C@](C)(O)[C@]1(O)[C@H](OC(=O)CCC)C[C@@]2(C)OC(C)=O (stereo partly shown) [NCGC00169033] | – | – | – | – | – | 48.4% | 4.39 µM | 2.77 µM | 63.3% |

| SMILES | CPE % Efficacy [1, 2] | EC50 [1] | % Cytotox (Vero E6 cells; 72 h) | CPE % Efficacy [1, 3] | EC50 [1, 3] | % Cytotox (Vero E6 cells; cytotoxicity counter-assay) | CC50 (Vero E6 cells; cytotoxicity counter-assay) | EC50 [1, 4] | CPE % Efficacy [1, 5] |
| --- | --- | --- | --- | --- | --- | --- | --- | --- | --- |
| C/C=C(\C)C(=O)O[C@H]1C=C(CO)C(=O)[C@H](OC(C)=O)[C@H]1C(C)C [NCGC00180769] | – | – | – | – | – | 103.1% | 10 µM | 3.55 µM | 30.1% |
| Cn1nnnc1Sc1ncnc2scc(-c3cccc(S(C)(=O)=O)c3)c12 [NCGC00182390] | – | – | – | – | – | 63.9% | 8.91 µM | 4.47 µM | 57.8% |
| COc1cc2nc(N3CCCCC3)nc(NC3CCN(Cc4ccccc4)CC3)c2cc1OC [NCGC00185849] | – | – | – | – | – | 110.3% | 10 µM | 3.98 µM | 66.6% |
| COc1cc2nc(N3CCCCC3)nc(NC3CCN(C)CC3)c2cc1OC [NCGC00185859] | – | – | – | – | – | 69.3% | 10 µM | 3.55 µM | 94.8% |
| CNC(=O)c1ccc2c(C(=Nc3cccc(CN(C)C)c3)c3ccccc3)c(O)[nH]c2c1 [NCGC00346543] | – | – | – | 94.9% | 12.6 µM | 22.6% | – | – | – |
| C=C1Cc2c(Cl)cc3[nH]c4c5c3c2[C@@]2(O)[C@@H]1C[C@@H]2C(C)(C)O[C@H]5C1CC[C@@]2(O)[C@@]35O[C@@H]3[C@H]3OC(C)(C)[C@H]3O[C@H]5CC[C@]2(C)[C@@]41C (stereo partly shown) [NCGC00380694] | – | – | – | – | – | 19.8% | 4.74 µM | 2.99 µM | 50.6% |
| CCC(C)C(=O)OC12C(OC(C)=O)C(C)C3(O)C(C=C(CO)CC4(O)C(=O)C(C)=CC43)C1C2(C)C (stereo not shown) [NCGC00380715] | – | – | – | – | – | 0.0% | – | 0.98 µM | 45.0% |
| C/C=C(\C)C(=O)OC1C(C)C2(O)C3C=C(C)C(=O)C3CC(CO)=CC2C2C(C)(C)C12OC(C)=O (stereo not shown) [NCGC00380717] | – | – | – | – | – | 9.9% | 0.35 µM | 0.78 µM | 67.0% |
| CCC(C)C(=O)OC1CC(O)C23C4OCC5(C(O)CC2C1(C)C(O)O4)C3C(=O)CC1(C)C(c2ccoc2)CC2OC215 (stereo not shown) [NCGC00381227] | – | – | – | – | – | 53.1% | 7.8 µM | 3.91 µM | 82.9% |
| C[C@@H]1O[C@@H](O[C@H]2[C@H](OC(=O)[C@]34CCC(C)(C)C[C@H]3C3=CCC5[C@@]6(C)CC[C@H](O[C@@H]7O[C@H](CO[C@@H]8OC[C@H](O)[C@H](O)[C@H]8O)[C@@H](O)[C@H](O)[C@H]7O)C(C)(C)C6CC[C@@]5(C)[C@]3(C)C[C@H]4O)OC[C@@H](O)[C@@H]2O)[C@H](O)[C@H](O)[C@H]1O[C@@H]1OC[C@H](O)[C@H](O[C@@H]2OC[C@@H](O)[C@H](O)[C@H]2O)[C@H]1O (stereo partly shown) [NCGC00384864] | – | – | – | – | – | 58.6% | 1.91 µM | 0.6 µM | 46.4% |
| C[C@@H]1O[C@@H](O[C@@H]2[C@@H](O)[C@H](O[C@@H]3[C@@H](O)[C@@H](O)[C@H](O[C@H]4[C@H](OC(=O)[C@]56CCC(C)(C)C[C@H]5C5=CCC7[C@@]8(C)C[C@H](O)[C@H](O[C@@H]9O[C@@H](C)[C@H](O)[C@@H](O)[C@H]9O)[C@@](C)(CO)C8CC[C@@]7(C)[C@]5(C)C[C@H]6O)O[C@H](C)[C@H](O)[C@@H]4O)O[C@H]3C)OC[C@H]2O)[C@H](O)[C@H](O)[C@H]1O (stereo partly shown) [NCGC00385241] | – | – | – | – | – | 98.7% | 1.91 µM | 0.85 µM | 123.9% |
| C[C@@H]1O[C@@H](O[C@H]2[C@H](OC(=O)[C@]34CCC(C)(C)C[C@H]3C3=CCC5[C@@]6(C)C[C@H](O)[C@H](O[C@@H]7O[C@H](CO[C@@H]8OC[C@H](O)[C@H](O)[C@H]8O)[C@@H](O)[C@H](O)[C@H]7O)C(C)(C)C6CC[C@@]5(C)[C@]3(C)C[C@H]4O)OC[C@@H](O)[C@@H]2O)[C@H](O)[C@H](O[C@@H]2OC[C@](O)(CO)[C@H]2O)[C@H]1O[C@@H]1OC[C@H](O)[C@H](O[C@@H]2OC[C@@H](O)[C@H](O)[C@H]2O)[C@H]1O (stereo partly shown) [NCGC00385321] | – | – | – | – | – | 35.4% | 2.4 µM | 2.4 µM | 105.7% |
| C[C@H]1CC[C@@]2(OC1)O[C@H]1CC3[C@@H]4CC[C@@H]5C[C@@H](O[C@@H]6O[C@H](CO)[C@@H](O[C@@H]7O[C@H](CO[C@@H]8OC[C@@H](O)[C@H](O)[C@H]8O)[C@@H](O[C@@H]8O[C@H](CO)[C@H](O)[C@H](O)[C@H]8O)[C@H](O)[C@H]7O)[C@H](O)[C@H]6O)CC[C@]5(C)C4CC[C@]3(C)[C@H]1[C@@H]2C (stereo partly shown) [NCGC00385658] | – | – | – | – | – | 78.8% | 3.4 µM | 3.03 µM | 68.4% |
| C[C@@H]1O[C@@H](O[C@H]2[C@H](OC(=O)[C@]34CCC(C)(C)C[C@H]3C3=CCC5[C@@]6(C)CC[C@H](O[C@@H]7O[C@H](CO[C@@H]8OC[C@H](O)[C@H](O)[C@H]8O)[C@@H](O)[C@H](O)[C@H]7O)C(C)(C)C6CC[C@@]5(C)[C@]3(C)C[C@H]4O)OC[C@@H](O)[C@@H]2O)[C@H](O)[C@H](O[C@@H]2OC[C@](O)(CO)[C@H]2O)[C@H]1O[C@@H]1OC[C@H](O)[C@H](O[C@@H]2OC[C@@H](O)[C@H](O)[C@H]2O)[C@H]1O (stereo partly shown) [NCGC00385743] | – | – | – | – | – | 67.2% | 2.14 µM | 0.95 µM | 59.8% |
| CC(=O)OC1[C@H]2[C@@H](C[C@@H](C)[C@@H]3C=CC(=O)[C@@]13C)OC(=O)[C@@H]2C (stereo partly shown) [NCGC00385908] | – | – | – | – | – | 44.4% | 11.2 µM | 7.08 µM | 67.1% |
| CC(C)(C)c1ccc(C(=O)Nc2cc(Cl)c(Br)cc2C(=O)O)cc1 [NCGC00386831] | – | – | – | – | – | 78.8% | 10 µM | 11.2 µM | 32.0% |
| Cc1cc(N2CCN(C(=O)Oc3ccc(-c4ccccc4)cn3)CC2)c2ccccc2n1 [NCGC00386928] | – | – | – | 63.4% | 12.6 µM | 68.1% | 12.6 µM | – | – |
| CCCCOC(=O)c1ccnc2cc(C(OCCN3CCCCC3)c3ccccc3C)sc12 (stereo not shown) [NCGC00481621] | – | – | – | – | – | 35.5% | 12.6 µM | 10 µM | 88.9% |
